According to article PMC12524732 (2025):

Experiments:
[1] = test system: c-MYC (DNA, G4) TGAGGGTGGGTAGGGTGGGTAA; experiment: 1H-NMR titration; conditions: 20 mM KCl; 10 mM KH2PO4, pH 7.0, 25 °C; 0.2 mM DNA; up to 8 equivalents; shifts up to ~70 Hz, mainly 3′ G-quartet
[2] = test system: c-KIT2 (DNA, G4) CGGGCGGGCGCTAGGGAGGGT; experiment: 1H-NMR titration; conditions: 20 mM KCl; 10 mM KH2PO4, pH 7.0, 25 °C; 0.2 mM DNA; up to 8 equivalents; shifts up to ~50 Hz, 5′ G-quartet
[3] = test system: c-MYC (DNA, G4) TGAGGGTGGGTAGGGTGGGTAA; experiment: ITC; conditions: 20 mM KCl; 10 mM KH2PO4, pH 7.0, 25 °C; ~20 µM DNA; up to 8 equivalents; Kb and n not determinable
[4] = test system: dsDNA duplex (DNA, duplex) GTAACTAGTTAACGATC/GATCGTTAACTAGTTAC; experiment: 1H-NMR titration; conditions: 20 mM KCl; 10 mM KH2PO4, pH 7.0, 25 °C; 0.2 mM DNA; up to 4 equivalents; no shifts
[5] = test system: mutTel24 (DNA, G4) TTGGGTTAGGGTTAGGGTTAGGGA; experiment: 1H-NMR titration; conditions: 20 mM KCl; 10 mM KH2PO4, pH 7.0, 25 °C; 0.2 mM DNA; up to 4 equivalents; no shifts
[6] = test system: c-KIT2 (DNA, G4) CGGGCGGGCGCTAGGGAGGGT; experiment: ITC; conditions: 20 mM KCl; 10 mM KH2PO4, pH 7.0, 25 °C; ~20 µM DNA; up to 8 equivalents; Kb and n not determinable

binding [1]: weak
binding [2]: weak
ΔH° [3]: −11.7 ± 2.0 kJmol^−1
binding [4]: no
binding [5]: no
ΔH° [6]: −52.8 ± 5.8 kJmol^−1
Compound: CC[C@]1(O)C[C@H]2CN(CCc3c([nH]c4ccccc34)[C@@](C(=O)OC)(c3cc4c(cc3OC)N(C=O)[C@H]3[C@@](O)(C(=O)OC)[C@H](OC(C)=O)[C@]5(CC)C=CCN6CC[C@]43[C@@H]65)C2)C1
